The text below walks through data of ChEMBL document CHEMBL1151663, “Further explorations of unnatural alkaloids” (J Nat Prod, 1985).

Activity calls are given as the source filed them. The calls are words filed in the database; no cut-off is given here. A value given as a limit tells only on which side of the number the result lay.

Data set [1] deals with T1, Amine oxidase [flavin-containing] B (Homo sapiens, UniProt P27338).
T1 sequence (P27338 whole entry): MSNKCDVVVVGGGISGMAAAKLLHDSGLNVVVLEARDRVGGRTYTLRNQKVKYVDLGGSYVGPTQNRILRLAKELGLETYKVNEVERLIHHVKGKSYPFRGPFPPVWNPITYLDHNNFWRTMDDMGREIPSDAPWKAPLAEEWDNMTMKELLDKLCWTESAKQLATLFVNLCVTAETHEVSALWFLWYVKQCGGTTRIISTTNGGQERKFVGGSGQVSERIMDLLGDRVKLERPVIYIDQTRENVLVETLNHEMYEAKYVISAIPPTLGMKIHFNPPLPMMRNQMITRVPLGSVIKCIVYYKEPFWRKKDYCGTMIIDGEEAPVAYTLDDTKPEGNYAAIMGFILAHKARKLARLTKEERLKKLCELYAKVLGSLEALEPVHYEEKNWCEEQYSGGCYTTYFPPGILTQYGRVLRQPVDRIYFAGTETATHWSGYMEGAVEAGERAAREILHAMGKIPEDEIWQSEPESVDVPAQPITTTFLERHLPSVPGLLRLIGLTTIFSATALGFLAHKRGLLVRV
The data set is described as follows: Activity of human liver MAOB assessed as specific activity at 1 mM. The following applies: 1000 µM.

Data set [2] can be described thus: Toxicity in intramuscular dosed mouse. It counts as organism-based. To be noted: in vivo, im.
Data set [3] is filed under the species Mus musculus. The data set is described as follows: Analgesic activity in mouse by hot plate test. It counts as functional, organism-based. A general note: Hot-plate and tail-flick tests time the reaction to a heat stimulus.
For data set [4], the species on record is Rattus norvegicus. The data set is described as follows: Displacement of [3H]colchicine from rat brain tubulin at 25 uM. (Loss of bound radioactivity is the signal in a displacement assay; it reports binding, not function.)
Data set [5] addresses T2, MAO-B (amine oxidase [flavin-containing] B) (Homo sapiens, UniProt P27338).
T2 sequence (P27338 whole entry): T1 sequence (P27338 whole entry)
The data set is described as follows: Inhibition of human liver MAOB at 1 mM relative to MPTP.

Regarding `C=CCN1CC=C(c2ccccc2)CC1`, the Activity in data set [1] is reported as less than 5 nmol/min/mg.
Turning to `COc1cc2c(c(OC)c1OC)-c1ccc(OC)c(=O)cc1[C@@H](NC(C)=O)CC2` [COLCHICINE], in data set [2], the LD50 (as a rule, the dose at which mortality reaches 50%) worked out at 3 µmol/kg.
On to `CN1CC[C@@]2(C)c3cc(O)ccc3N(C)[C@@H]12`, for which the result in data set [3] was Active.
Consider `C/C=C/C(=O)N[C@H]1CCc2cc(OC)c(OC)c(OC)c2-c2ccc(OC)c(=O)cc21`, for which, in data set [4], the inhibition (usually the drop in the measured response relative to a control, in per cent) stood at 67%. Besides, in data set [2], the LD50 amounted to 3.4 µmol/kg.
For `C1=C(c2ccccc2)CCN(Cc2ccccc2)C1`, the Activity in data set [1] is less than 5 nmol/min/mg.
On the same count and under the same terms, in the case of `CCCN1CC=C(c2ccccc2)CC1` it was less than 5 nmol/min/mg; in that of `C1=C(c2ccccc2)CCN(CC2CC2)C1`, less than 5 nmol/min/mg.
With `CCN1CC=C(c2ccccc2)CC1`, the Activity in data set [1] is on record as 8.82 nmol/min/mg. This compound yielded an inhibition at 1000 µM in data set [5] of 10.4%.
Take `C1=C(c2ccccc2)CCNC1`: the Activity in data set [1] amounted to 58.6 nmol/min/mg. In data set [5], the inhibition at 1000 µM was 68.8%.
For `CC1CN(C)CC=C1c1ccccc1` (centres undefined) the same measures were 11.4 nmol/min/mg and 13.4%.
As to `CN1CC=C(c2ccc(O)cc2)CC1`, the Activity in data set [1] is reported as less than 5 nmol/min/mg.
Still for that read-out and setting: to `CC(C)N1CC=C(c2ccccc2)CC1` belongs less than 5 nmol/min/mg.
`CN1CC=C(c2ccccc2)CC1`: in data set [1], the Activity amounted to 85.2 nmol/min/mg. In data set [5], the inhibition at 1000 µM came to 100%.
For `CC1=C(c2ccccc2)CCN(C)C1` the same measures were 5.3 nmol/min/mg and 6.2%.
`CCCC(=O)N[C@H]1CCc2cc(OC)c(OC)c(OC)c2-c2ccc(OC)c(=O)cc21` showed an inhibition in data set [4] (tested as the 2H-labelled form) of 79%.
In the case of `CCCCN1CC=C(c2ccccc2)CC1`, the Activity in data set [1] is less than 5 nmol/min/mg.
Take `CN1CC=CC(c2ccccc2)C1` (centres undefined): the Activity in data set [1] is less than 5 nmol/min/mg.
On the same count and under the same terms, in the case of `CN1CCC=C(c2ccccc2)C1` it was less than 5 nmol/min/mg.
Regarding `CN1CC[C@]2(C)c3cc(O)ccc3N(C)[C@H]12`, the outcome in data set [3] was inactive.
Take `CN1CC=C(c2ccc(Cl)cc2)CC1`: the Activity in data set [1] is listed as 5.8 nmol/min/mg. The same compound registered an inhibition at 1000 µM in data set [5] of 6.8%.
As for `C=CC(=O)N[C@H]1CCc2cc(OC)c(OC)c(OC)c2-c2ccc(OC)c(=O)cc21`, in data set [4], the inhibition is 82%. Further, the LD50 in data set [2] was 17.4 µmol/kg.
